Laboratory results reported in ChEMBL document CHEMBL1201862, “PubChem BioAssay data set” (2004).
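Tested at 5 concentrations; 48 h exposure; 96-well plates; endpoints linearly interpolated, else capped at highest concentration. At the GI50, growth is halved.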 Active and inactive are the calls of the source. Cut-off read from the data, not from the text of the source: active = GI50 up to about 1.1 µM and inactive = higher.

Key:
Assay in all cases: NCI anticancer screen, dose series, 48 h
CAKI-1 = system: CAKI-1
DLD-1 = system: DLD-1
DMS-114 = system: DMS-114
DMS-273 = system: DMS-273
EKVX = system: EKVX
HOP-92 = system: HOP-92
KM-20L2 = system: KM-20L2
Malme-3M = system: Malme-3M
SK-MEL-28 = system: SK-MEL-28
SK-MEL-5 = system: SK-MEL-5
SNB-78 = system: SNB-78
SW-620 = system: SW-620
ACHN = system: ACHN
SR = system: SR
TK-10 = system: TK-10

Structure (SMILES) | GI50 (CAKI-1) | GI50 (DLD-1) | GI50 (DMS-114) | GI50 (DMS-273) | GI50 (EKVX) | GI50 (HOP-92) | GI50 (KM-20L2) | GI50 (Malme-3M) | GI50 (SK-MEL-28) | GI50 (SK-MEL-5) | GI50 (SNB-78) | GI50 (SW-620) | GI50 (ACHN) | GI50 (SR) | GI50 (TK-10)
[N-]=[N+]=CC(=O)OCC(N)C(=O)O (configuration not stated) | 5.85 µM (inactive) | 0.344 µM (active) | 1.59 µM (inactive) | 0.245 µM (active) | 0.413 µM (active) | 82 µM (inactive) | 0.157 µM (active) | 54.8 µM (inactive) | 3.35 µM (inactive) | 0.847 µM (active) | 586 µM (inactive) | 0.437 µM (active) | – | – | –
CCOC(=O)c1ccc(N[C@@H]2c3cc4c(cc3C(c3cc(OC)c(O)c(OC)c3)[C@H]3C(=O)OCC32)OCO4)cc1O (some centres not stated) | 0.331 µM (active) | 1.44 µM (inactive) | 0.56 µM (active) | 0.299 µM (active) | 2.25 µM (inactive) | 1.19 µM (inactive) | 2.2 µM (inactive) | 0.757 µM (active) | 1.22 µM (inactive) | 1.19 µM (inactive) | 1.77 µM (inactive) | 0.942 µM (active) | – | – | –
O=C(O)c1cc2c3c(c1)[C@H]1C=CC[C@H]1CN3CC1CC=CC21 (some centres not stated) | > 100 µM (inactive) | > 100 µM (inactive) | > 100 µM (inactive) | > 100 µM (inactive) | > 100 µM (inactive) | > 100 µM (inactive) | > 100 µM (inactive) | > 100 µM (inactive) | – | > 100 µM (inactive) | > 100 µM (inactive) | > 100 µM (inactive) | > 100 µM (inactive) | > 100 µM (inactive) | > 100 µM (inactive)
CC(=O)OCC1OC(n2cc(F)c(=O)[nH]c2=O)C(NC(=O)OCc2ccccc2)C(OC(C)=O)C1OC(C)=O (configuration not stated) | > 100 µM (inactive) | > 100 µM (inactive) | > 100 µM (inactive) | > 100 µM (inactive) | > 100 µM (inactive) | > 100 µM (inactive) | > 100 µM (inactive) | > 100 µM (inactive) | > 100 µM (inactive) | > 100 µM (inactive) | > 100 µM (inactive) | > 100 µM (inactive) | – | – | –
CCCCCCCCCCC(C)CCCCCCC(=O)O (configuration not stated) | > 100 µM (inactive) | > 100 µM (inactive) | > 100 µM (inactive) | > 100 µM (inactive) | > 100 µM (inactive) | > 100 µM (inactive) | – | > 100 µM (inactive) | > 100 µM (inactive) | > 100 µM (inactive) | > 100 µM (inactive) | > 100 µM (inactive) | > 100 µM (inactive) | > 100 µM (inactive) | > 100 µM (inactive)
CCCCCC1CC(C(C)=O)CN1c1ccc(F)cc1 (configuration not stated) | – | 32 µM (inactive) | 20.3 µM (inactive) | 35.6 µM (inactive) | 50.6 µM (inactive) | 27.9 µM (inactive) | 35.3 µM (inactive) | 54.7 µM (inactive) | 54.5 µM (inactive) | 19.8 µM (inactive) | 36.4 µM (inactive) | 29.7 µM (inactive) | 26.9 µM (inactive) | > 10 µM (inactive) | 98.6 µM (inactive)
Nc1ncnc2c1ncn2[C@@H]1O[C@H](COP(=O)(O)O)[C@@H](O)[C@@H]1O | > 50 µM (inactive) | > 31.6 µM (inactive) | > 50 µM (inactive) | > 50 µM (inactive) | > 50 µM (inactive) | > 31.3 µM (inactive) | > 50 µM (inactive) | > 50 µM (inactive) | > 50 µM (inactive) | > 50 µM (inactive) | > 50 µM (inactive) | > 50 µM (inactive) | – | – | –
CS(=O)(=O)OCC1=C(COS(C)(=O)=O)C(=O)c2c(O)ccc(O)c2C1=O | > 100 µM (inactive) | > 100 µM (inactive) | > 100 µM (inactive) | > 100 µM (inactive) | > 100 µM (inactive) | > 100 µM (inactive) | > 100 µM (inactive) | > 100 µM (inactive) | > 100 µM (inactive) | > 100 µM (inactive) | > 100 µM (inactive) | > 100 µM (inactive) | > 100 µM (inactive) | > 100 µM (inactive) | > 100 µM (inactive)
O=NN(CCCl)C(=O)NC1CCSc2ccccc21 (configuration not stated) | > 100 µM (inactive) | > 100 µM (inactive) | 47.2 µM (inactive) | > 100 µM (inactive) | 28.3 µM (inactive) | > 100 µM (inactive) | > 100 µM (inactive) | > 100 µM (inactive) | > 58.2 µM (inactive) | > 100 µM (inactive) | > 100 µM (inactive) | > 100 µM (inactive) | – | – | –
COc1ccc(C23C(=O)c4ccccc4N2O[C@H]2C(=O)N(c4ccccc4)C(=O)[C@H]23)cc1 (some centres not stated) | > 100 µM (inactive) | > 100 µM (inactive) | > 100 µM (inactive) | > 100 µM (inactive) | > 100 µM (inactive) | > 100 µM (inactive) | > 100 µM (inactive) | > 100 µM (inactive) | > 100 µM (inactive) | > 100 µM (inactive) | > 100 µM (inactive) | > 100 µM (inactive) | > 100 µM (inactive) | – | > 100 µM (inactive)
C=C1C(=O)C[C@@]23CCC[C@@]12CC(O)C3 (some centres not stated) | > 10 µM (inactive) | 18.6 µM (inactive) | 16.7 µM (inactive) | 17.3 µM (inactive) | 27.3 µM (inactive) | 19.3 µM (inactive) | 21.8 µM (inactive) | 0.855 µM (active) | 21.5 µM (inactive) | 10.5 µM (inactive) | 28.2 µM (inactive) | 18.7 µM (inactive) | – | – | –
CC1C(O)C2(Oc3cc4c(c5c3[C@@H](CC5O)[C@H]2C)CCC2Cc3nc5c(nc3C[C@@]42C)CC2CCC3C4=C[C@H]6O[C@@]7(O[C@@](C)(CO)C[C@@H]7O)C(C)[C@@]6(O)[C@]4(C)[C@@H](O)CC3[C@]2(C)C5)OC1(C)C (some centres not stated) | 0.148 µM (active) | 1.1 µM (active) | 0.104 µM (active) | 0.0304 µM (active) | 0.123 µM (active) | 0.204 µM (active) | 0.0975 µM (active) | 0.0927 µM (active) | – | 0.237 µM (active) | 0.0494 µM (active) | 0.201 µM (active) | – | – | –
CCCCC(C)C1CCC2(C)C=CC(=O)C(C)=C2C1O (configuration not stated) | > 100 µM (inactive) | > 100 µM (inactive) | > 100 µM (inactive) | > 100 µM (inactive) | > 100 µM (inactive) | > 100 µM (inactive) | > 100 µM (inactive) | – | > 100 µM (inactive) | > 100 µM (inactive) | > 100 µM (inactive) | > 100 µM (inactive) | – | – | –
O=C(CCC(=O)Nc1ccccc1C(F)(F)F)N/N=C1\C(=N\NC(=O)CCC(=O)Nc2ccccc2C(F)(F)F)C(c2ccc3c(c2)OCO3)Oc2ccccc21 (configuration not stated) | 10.1 µM (inactive) | 5.04 µM (inactive) | 2.74 µM (inactive) | 5.58 µM (inactive) | 9.79 µM (inactive) | 17.9 µM (inactive) | 97.1 µM (inactive) | > 100 µM (inactive) | > 100 µM (inactive) | 7.74 µM (inactive) | 25.8 µM (inactive) | 6.22 µM (inactive) | 6.46 µM (inactive) | 3.59 µM (inactive) | > 64.7 µM (inactive)
C#Cc1c(C)c(/C=C/C(C)=C\C(=O)OC)n(C)c1C | > 100 µM (inactive) | 45.4 µM (inactive) | 19 µM (inactive) | > 100 µM (inactive) | > 100 µM (inactive) | > 100 µM (inactive) | 46.6 µM (inactive) | > 100 µM (inactive) | – | – | > 100 µM (inactive) | > 100 µM (inactive) | 47.8 µM (inactive) | – | > 100 µM (inactive)
O=C(Nc1cccc(C(F)(F)F)c1)C(=O)C(C(=O)c1ccc(Cl)c(Cl)c1)C1OC(=O)c2ccccc21 (configuration not stated) | 88.1 µM (inactive) | 41.9 µM (inactive) | 21.6 µM (inactive) | 33.9 µM (inactive) | 79.1 µM (inactive) | 26.8 µM (inactive) | 39.4 µM (inactive) | 15.6 µM (inactive) | – | – | 32.4 µM (inactive) | 38.1 µM (inactive) | 53.2 µM (inactive) | 15.4 µM (inactive) | > 100 µM (inactive)
Cc1c2ccnc(-c3ccccc3)c2cc2c1[nH]c1ccccc12 | 0.655 µM (active) | 2.99 µM (inactive) | 1.69 µM (inactive) | 0.425 µM (active) | 2.92 µM (inactive) | 1.25 µM (inactive) | 2.61 µM (inactive) | 3.37 µM (inactive) | 4.29 µM (inactive) | 0.614 µM (active) | 4.32 µM (inactive) | 2.48 µM (inactive) | – | – | –
